This note sets out measurements from US10874103B2, “Antibacterial composition comprising an acetal or a long-chain alkyl hexitane ether” (TEREOS STARCH & SWEETENERS BELGIUM, priority 2014, dated 2020).

A short description of series [1]: Critical micelle concentration (surfactant properties, Example 6). It is filed as physicochemical. The text has this:
The physical, chemical and antimicrobial properties for the best products synthesized have been tested. These analyses show the different surfactant profiles, and the minimum inhibitory concentrations (MIC) for each compound on Gram-positive bacteria. The best surfactant and antimicrobial results are compared in Table 3.

The subject of series [2] is L. monocytogenes (CIP 103575), E. faecalis (ATCC® 29212™) and S. aureus (ATCC® 292213™). The series can be described thus: MIC microdilution, statements for all three Gram-positive strains together. Type of series: cell-based. The settings on record: listed as Sorbitan dodecyl ether. How it is done: The bacteriostatic properties of the derivatives are evaluated by measuring their minimum inhibitory concentration (MIC) on the bacteria tested. Such a measurement is made using the 96-well microplate microdilution method according to the conditions defined below.
The minimum inhibitory concentrations (MIC) are tested on Gram-positive bacterial strains according to the recommendations of the “Clinical Laboratory Standards Institute” (Clinical-Laboratory-Standards-Institute, 6th ed. Approved standard M100-S17. CLSI, Wayne, Pa., 2007).
The Gram-positive bacteria studied are as follows: L. monocytogenes (CIP 103575), E. faecalis (ATCC® 29212™) and S. aureus (ATCC® 292213™).
The cultures studied, freshly isolated (after incubation on a blood agar at 37° C. for 18 h), are taken up in sterile water (10 mL) until a 0.5 McFarland (Mc) suspension i.e. 1 to 2×10^8 CFU (bacteria)/cm^3 is obtained. The bacterial suspension was then diluted to obtain a final concentration of 5×10^5 CFU/cm^3.
Each well contains an identical quantity of Mueller-Hinton medium (a rich medium for bacterial culture) and bacteria with final 5×10^5 CFU/cm^3.
The test compounds of interest are solubilized in 2.5% m of ethanol before being diluted to different concentrations two by two.
On the multiwell plate, a first series has been planned comprising the culture medium without the test compound of interest. […]

For series [3] the test system is unchanged. The series can be described thus: MBC, statement for all Gram-positive strains tested together. It is filed as cell-based. The settings on record: all three strains. How it is done: To determine whether the agents tested are bactericidal, the minimum bactericidal concentration (MBC) is determined. The MBC corresponds to the concentration leaving a number of bacterial survivors of <4 log. For this, a bacterial count is run from clear wells or without bacterial residue (C≤MIC). To do this, a dilution to 1/100 was conducted with the two wells with the same concentration before seeding on a blood agar using the Spiral technique. After 24 h of incubation at 37° C., the visual count allowed determination of the minimum concentration from which there is no bacterial growth.
To determine the bactericidal effect of compounds presenting bacteriostatic properties, the wells no longer presenting turbidity were reseeded on agar.

Series [4] relates to Listeria: L. monocytogenes strains. The series can be described thus: MIC microdilution on wider panel (Example 8), Listeria strains. Type of series: cell-based. The protocol: The cultures studied, freshly isolated (after incubation on a blood agar at 37° C. for 18 h), are taken up in sterile water (10 mL) until a 0.5 McFarland (Mc) suspension i.e. at 1 to 2×10^8 CFU (bacteria)/cm^3 is obtained. The bacterial suspension was then diluted to obtain a final concentration of 1×10^6 CFU/cm^3. Each well contains an identical quantity of Mueller-Hinton medium (a rich medium for bacterial culture) and bacteria with final 0.5×10^6 CFU/cm^3. The test compounds of interest are solubilized in ethanol or DMSO at 25 mg/mL before being diluted to different concentrations two by two. On the multiwell plate, a first series has been planned comprising the culture medium without the test compound of interest. It corresponds to the growth control (control well). These controls serve as reference for comparing bacterial growth with that of the subsequent wells comprising different concentrations of the test compound of interest. The second series of wells comprises the mother solution for the test compound of interest for a concentration in the wells of 256 mg (7 mM). Each series of wells was diluted two by two until the last series for a final concentration of 0.25 mg/L (0.0007 mM). Each concentration is duplicated in the same plate. The plate is incubated for 18 h at 37° C. […] If there is antibacterial activity, the bacterial growth is inhibited, which means that no turbidity or bacterial residue is present. The minimum inhibitory concentrations (MIC) are tested on Gram-positive bacterial strains according to the recommendations of the “Clinical Laboratory Standards Institute” (Clinical-Laboratory-Standards-Institute, 6th ed. Approved standard M100-S17. CLSI, Wayne, Pa., 2007). The clinical strains have been isolated in the Hospice de Lyon. Listeria: L. monocytogenes (CIP 103575), clinical strain isolated from hemoculture (015189074801, LM1), a strain isolated from cerebrospinal liquid (015170199001, LM2), clinical strains isolated from hemoculture (015181840701, LM3). The cultures studied, freshly isolated (after incubation on a blood agar at 37° C. for 18 h), are taken up in sterile water (10 mL) until a 0.5 McFarland (Mc) suspension i.e. at 10^8 CFU (bacteria)/cm^3 is obtained. The bacterial suspension was then diluted to obtain a final concentration of 10^6 CFU/cm^3.
A general note: Dilution methods test growth across graded concentrations, often in twofold steps.

Read-outs that look alike come from different tables or passages of the source.

Turning to Dodecyl-1,4-d-sorbitan [Example 2e], the “CMC (critical micelle concentration)” value in series [1] is on record as 0.091 mM; in series [1] (listed as Sorbitan dodecyl ether) it was 0.09 mM. For the same substance, the “MIC / inhibitory concentration on the bacterial strains studied” value in series [2] is 120 µM. For the same substance, in series [3], the “MBC for all the Gram-positive strains tested” value was 120 µM. For the same substance, the “Minimum inhibitory concentration (MIC) CIP 103575” value in series [4] (L. monocytogenes CIP 103575) came to 32 µg/mL. For the same substance, the “Minimum inhibitory concentration (MIC) LM3” value in series [4] (clinical strain from hemoculture 015181840701) was 32 µg/mL. Besides, the “Minimum inhibitory concentration (MIC) LM1” value in series [4] (clinical strain from hemoculture 015189074801) stood at 16 µg/mL. For the same substance, in series [4] (strain from cerebrospinal liquid 015170199001), the “Minimum inhibitory concentration (MIC) LM2” value stood at 32 µg/mL.
